Assay results from patent US8034812B2, “Imidazopyridazine derivative having kinase inhibitory activity and pharmaceutical agent thereof” (Takeda Pharmaceutical Company Limited, priority 2006, dated 2011).

Experiments:
[1] = target: T1, VEGFR2 intracellular domain protein (Homo sapiens, UniProt P35968); experiment: Determination of vascular endothelial growth factor receptor 2 (VEGFR2) kinase inhibitory activity (AlphaScreen); assay type: biochemical; conditions: read-out: VEGFR2 kinase inhibitory rate
T1 construct: made in house; host or cells: SF-21 insect cells, recombinant baculovirus BAC-VEGFR2
Procedure: Human vascular endothelial growth factor receptor 2 (hereinafter to be referred to as VEGFR2) gene was cloned by PCR using cDNA Libraries Human Placenta (Clontech) as a template. The primer used for PCR was prepared from base sequence (Genbank Accession AF035121) information of VEGFR2 gene by adding a base sequence encoding flag peptide and a recognition sequence of the restriction enzyme to a base sequence (2671-4374 of Genbank Accession AF035121) encoding the VEGFR2 intracellular domain region, so that the protein contains an N-terminal Flag tag. The primer base sequence is shown below.
SF-21 cells were sown at 1×10^6 cells/mL to Sf-900II SFM medium (1 L, Invitrogen) containing 10% fetal bovine serum (trace), 50 mg/L Gentamicin (Invitrogen) and 0.1% Pluronic F-68 (Invitrogen), and shaking culture was performed using a 2 L volume Erlenmeyer flask at 27° C., 100 rpm. After culturing for 24 hrs, recombinant baculovirus BAC-VEGFR2 (13.4 mL) was added to the mixture, and the mixture was further cultured for 3 days. The culture medium was centrifuged at 2,000 rpm for 5 min to give virus-infected cells. The infected cells were washed with a phosphate buffered saline (Invitrogen), centrifuged under the same conditions, and the cells were preserved at −80° C. The cryopreserved cells were thawed in ice, suspended in buffer A (50 mM Tris buffer (30 mL, pH 7.4) containing 20% glycerol, 0.15 M NaCl) supplemented with Complete Protease Inhibitor (Boehringer), and ruptured 3 times with a Polytron homogenizer (Kinematica) at 20,000 rpm for 30 sec. The ruptured medium was clarified by centrifugation at 40,000 rpm for 30 min and filtered with a 0.45 μm filter. The filtrate was passed through a column packed with Anti-FLAG M2 Affinity Gel (4 mL, Sigma) at a flow rate of about 0.5 mL/min. The column was washed with buffer A, and eluted with buffer A containing 100 μg/mL of FLAG peptide. The eluate was concentrated with Vivaspin 20 (Vivascience) having a molecular weight cut off of 30K. The buffer of this concentrate was exchanged using NAP™ 25 column (Amersham Bioscience) equilibrated with buffer A. The fractions containing intracellular domain protein of VEGFR2 were collected, glycerol was added to the final concentration of 50% and cryopreserved at −80° C.
A test compound dissolved in dimethyl sulfoxide (DMSO) was diluted with a buffer (50 mM Tris-HCl (pH 7.5), 5 mM MgCl2, 5 mM MnCl2, 2 mM dithiothreitol, 0.01% Tween-20). To this compound solution (5 μL) was added a buffer (10 μL) containing 50 ng/mL of VEGFR2 intracellular domain protein and 250 ng/mL of biotin labeled polypeptide biotinyl-poly-Glu:Tyr (4:1) (CIS bio International). To the obtained mixture was added a buffer (10 μL) containing ATP (25 μM), the mixture was allowed to react at 25° C. for 5 min and the reaction was quenched with 25 μL of a stop solution (100 mM EDTA disodium salt, 62.5 mM HEPES buffer (pH 7.4), 250 mM NaCl, 0.1% bovine serum albumin, 10 μg/mL AlphaScreen assay streptavidin donor beads (Streptavidin Donor beads: PerkinElmer), 10 μg/mL AlphaScreen assay anti-phosphotyrosine recognition antibody PY-100 binding acceptor beads (Anti-phosphotyrosine (P-Tyr-100) Acceptor beads: PerkinElmer)). The reaction solution was allowed to stand at 25° C. for 16 hrs, and the wells were counted using a plate reader Fusion™ (PerkinElmer). The kinase inhibitory rate (%) of the test compound was calculated by the following formula: Inhibitory rate(%)=(1−(count of test compound−blank)÷(control−blank))×100

[2] = target: T2, PDGFRα intracellular domain protein (Homo sapiens, UniProt P16234); experiment: Determination of platelet-derived growth factor receptor α (PDGFRα) kinase inhibitory activity (AlphaScreen); assay type: biochemical
T2 construct: 125 ng/ml of PDGFRα intracellular domain protein (UPSTATE); purchased UPSTATE
Procedure: (§1) A test compound dissolved in dimethyl sulfoxide (DMSO) was diluted with a buffer (50 mM Tris-HCl (pH 7.5), 5 mM MgCl2, 5 mM MnCl2, 2 mM dithiothreitol, 0.01% Tween-20). To this compound solution (5 μL) was added a buffer (10 μL) containing 125 ng/ml of PDGFRα intracellular domain protein (UPSTATE) and 250 ng/mL of biotin labeled polypeptide biotinyl-poly-Glu:Tyr (4:1) (CIS bio International). At 5 min after mixing kinase enzyme and the compound and biotin labeled polypeptide, to the obtained mixture was added a buffer (10 μL) containing ATP (25 μM), the mixture was allowed to react at 25° C. for 30 min and the reaction was quenched with 25 μL of a stop solution (100 mM EDTA disodium salt, 62.5 mM HEPES buffer (pH 7.4), 250 mM NaCl, 0.1% bovine serum albumin, 10 μg/mL AlphaScreen assay streptavidin donor beads (Streptavidin Donor beads: PerkinElmer), 10 μg/mL AlphaScreen assay anti-phosphotyrosine recognition antibody PT-66 binding acceptor beads (Anti-phosphotyrosine (P-Tyr-66) Acceptor beads: PerkinElmer)). The reaction solution was allowed to stand at 25° C. for 16 hrs, and the wells were counted using a plate reader Fusion™ (PerkinElmer). The kinase inhibitory rate (%) of the test compound was calculated by the following formula: Inhibitory rate(%)=(1−(count of test compound−blank)÷(control−blank))×100
(§2) The count of the solution reacted without addition of the compound was used as a “control”, and the count of the solution without the compound and ATP was used as a “blank”.

[3] = target: T3, PDGFRβ intracellular domain protein (Homo sapiens, UniProt P09619); experiment: Determination of platelet-derived growth factor receptor β (PDGFRβ) kinase inhibitory activity (AlphaScreen); assay type: biochemical
T3 construct: 125 ng/ml of PDGFRβ intracellular domain protein (UPSTATE); purchased UPSTATE
Procedure: as §1, with “of PDGFRβ” for “of PDGFRα”, “Donor Beads:” for “Donor beads:”, “test compound[…])÷(control−blank))×100” for “test compound−blank)÷(control−blank))×100”
as §2

[4] = system: Human umbilical vein-derived vascular endothelial cells (HUVEC); experiment: Vascular endothelial cell growth inhibitory test (VEGF-stimulated HUVEC, XTT); assay type: cell-based; conditions: 120 h, 5 days of culture
Procedure: To be specific, HUVEC was suspended in a vascular endothelial cell medium containing the aforementioned 5% bovine fetal serum and plated on a 96 well flat bottom plate by 50 μL (3000 cells) each well. After culture overnight, various concentrations of the test substance and 120 ng/mL of vascular endothelial growth factor (VEGF) were dissolved in a vascular endothelial cell medium containing 5% bovine fetal serum and added to each well by 50 μL. After 5 days of culture, a XTT reagent (Wako Pure Chemical Industries, Ltd.) was added to each well by 10 μL, and the mixture was reacted in an incubator at 37° C., 5% carbon dioxide for 2-3 hr. The absorbance at 450 nm was measured by a microtiter plate reader and the cell growth inhibitory activity was determined.

T1 sequence (P35968 786-1356 limits assumed): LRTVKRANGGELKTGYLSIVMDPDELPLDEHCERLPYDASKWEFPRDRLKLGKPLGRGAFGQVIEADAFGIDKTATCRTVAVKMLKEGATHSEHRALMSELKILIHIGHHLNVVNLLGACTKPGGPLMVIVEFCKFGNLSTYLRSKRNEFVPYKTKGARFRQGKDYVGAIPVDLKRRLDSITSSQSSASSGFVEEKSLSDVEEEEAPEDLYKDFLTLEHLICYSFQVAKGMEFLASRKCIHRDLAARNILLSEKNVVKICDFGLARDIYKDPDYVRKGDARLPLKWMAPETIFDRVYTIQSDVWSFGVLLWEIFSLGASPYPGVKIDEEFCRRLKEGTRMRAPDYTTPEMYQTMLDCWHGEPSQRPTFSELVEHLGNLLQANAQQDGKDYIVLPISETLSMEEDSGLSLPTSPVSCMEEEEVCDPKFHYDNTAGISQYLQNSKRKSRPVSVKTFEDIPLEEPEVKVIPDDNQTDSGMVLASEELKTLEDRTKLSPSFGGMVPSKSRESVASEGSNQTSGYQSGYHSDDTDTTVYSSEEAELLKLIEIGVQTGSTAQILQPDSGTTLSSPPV
T3 sequence (P09619 554-1106 limits assumed): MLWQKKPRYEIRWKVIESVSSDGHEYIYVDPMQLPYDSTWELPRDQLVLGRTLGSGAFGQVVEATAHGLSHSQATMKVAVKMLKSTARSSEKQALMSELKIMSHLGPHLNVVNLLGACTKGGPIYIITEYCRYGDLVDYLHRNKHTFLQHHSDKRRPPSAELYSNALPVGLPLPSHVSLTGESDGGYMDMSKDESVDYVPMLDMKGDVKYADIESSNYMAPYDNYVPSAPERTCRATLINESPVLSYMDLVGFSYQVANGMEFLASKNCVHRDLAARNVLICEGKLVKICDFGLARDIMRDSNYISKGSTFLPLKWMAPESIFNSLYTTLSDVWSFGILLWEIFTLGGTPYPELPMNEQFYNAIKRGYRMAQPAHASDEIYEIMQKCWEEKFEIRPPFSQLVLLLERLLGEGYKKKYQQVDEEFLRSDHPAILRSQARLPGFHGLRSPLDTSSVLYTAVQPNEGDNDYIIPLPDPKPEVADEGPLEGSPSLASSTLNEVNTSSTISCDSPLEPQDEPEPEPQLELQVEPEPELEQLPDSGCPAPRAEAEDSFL
T2 sequence (P16234 550-1089 limits assumed): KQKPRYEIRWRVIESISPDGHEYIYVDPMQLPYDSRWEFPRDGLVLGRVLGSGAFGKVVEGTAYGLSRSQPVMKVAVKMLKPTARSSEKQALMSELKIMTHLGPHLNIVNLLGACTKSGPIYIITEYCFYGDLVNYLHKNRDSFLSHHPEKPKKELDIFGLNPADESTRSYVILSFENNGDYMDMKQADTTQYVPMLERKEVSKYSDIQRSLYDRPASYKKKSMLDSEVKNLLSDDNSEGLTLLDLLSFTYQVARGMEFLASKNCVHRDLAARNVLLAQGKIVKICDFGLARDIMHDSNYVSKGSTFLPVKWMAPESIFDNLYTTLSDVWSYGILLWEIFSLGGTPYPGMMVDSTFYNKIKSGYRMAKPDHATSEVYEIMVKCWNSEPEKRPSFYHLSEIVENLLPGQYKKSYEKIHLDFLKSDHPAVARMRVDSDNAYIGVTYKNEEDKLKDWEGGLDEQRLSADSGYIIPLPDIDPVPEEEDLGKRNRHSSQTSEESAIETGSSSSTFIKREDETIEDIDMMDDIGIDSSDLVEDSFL

inhibition at 1 µM [1] [%]	IC50 [2] [nM]	IC50 [3] [nM]	SMILES	IC50 [4] [nM]
≥ 90	≤ 500	≤ 500	COc1cc(C(=O)Nc2cc(Oc3ccc4nc(NC(=O)C5CC5)cn4n3)ccc2C)n(C)n1 [Example 302, N-[5-({2-[(cyclopropylcarbonyl)amino]imidazo[1,2-b]pyridazin-6-yl}oxy)-2-methylphenyl]-3-methoxy-1-methyl-1H-pyrazole-5-carboxamide]	≤ 500
≥ 90	≤ 500	≤ 500	CCc1cc(C(=O)Nc2cc(Oc3ccc4nc(NC(=O)C5CC5)cn4n3)ccc2F)n(C)n1 [Example 208, N-[5-({2-[(cyclopropylcarbonyl)amino]imidazo[1,2-b]pyridazin-6-yl}oxy)-2-fluorophenyl]-3-ethyl-1-methyl-1H-pyrazole-5-carboxamide]	≤ 500
≥ 90	≤ 500	≤ 500	Cn1nccc1C(=O)Nc1cc(Oc2ccc3nc(NC(=O)C4CC4)cn3n2)ccc1F [Example 287, N-[5-({2-[(cyclopropylcarbonyl)amino]imidazo[1,2-b]pyridazin-6-yl}oxy)-2-fluorophenyl]-1-methyl-1H-pyrazole-5-carboxamide]	≤ 500
≥ 90	≤ 500	≤ 500	Cc1cc(C(=O)Nc2cccc(Nc3ccc4nc(NC(=O)C5CC5)cn4n3)c2)n(C)n1 [Example 317, N-[3-({2-[(cyclopropylcarbonyl)amino]imidazo[1,2-b]pyridazin-6-yl}amino)phenyl]-1,3-dimethyl-1H-pyrazole-5-carboxamide]	≤ 500
≥ 90	≤ 500	≤ 500	Cc1nn(C)cc1C(=O)Nc1cc(Oc2ccc3nc(NC(=O)C4CC4)cn3n2)ccc1F [Example 173, N-[5-({2-[(cyclopropylcarbonyl)amino]imidazo[1,2-b]pyridazin-6-yl}oxy)-2-fluorophenyl]-1,3-dimethyl-1H-pyrazole-4-carboxamide]	≤ 500
≥ 90	≤ 500	≤ 500	Cc1ccc(Oc2ccc3nc(NC(=O)C4CC4)cn3n2)cc1NC(=O)c1scnc1C [Example 298, N-[5-({2-[(cyclopropylcarbonyl)amino]imidazo[1,2-b]pyridazin-6-yl}oxy)-2-methylphenyl]-4-methyl-1,3-thiazole-5-carboxamide]	≤ 500
≥ 90	≤ 500	≤ 500	Cc1cc(C(=O)Nc2cc(Oc3ccc4nc(NC(=O)C5CC5C)cn4n3)ccc2F)n(C)n1 (stereo not drawn) [Example 243, N-{2-fluoro-5-[(2-{[(2-methylcyclopropyl)carbonyl]amino}imidazo[1,2-b]pyridazin-6-yl)oxy]phenyl}-1,3-dimethyl-1H-pyrazole-5-carboxamide]	≤ 500
≥ 90	≤ 500	≤ 500	Cc1cccnc1C(=O)Nc1cccc(Oc2ccc3nc(NC(=O)C4CC4)cn3n2)c1 [Example 187, N-[3-({2-[(cyclopropylcarbonyl)amino]imidazo[1,2-b]pyridazin-6-yl}oxy)phenyl]-3-methylpyridine-2-carboxamide]	≤ 500
≥ 90	≤ 500	≤ 500	CC#CC(=O)Nc1cc(Oc2ccc3nc(NC(=O)C4CC4)cn3n2)ccc1C [Example 241, N-{6-[3-(but-2-ynoylamino)-4-methylphenoxy]imidazo[1,2-b]pyridazin-2-yl}cyclopropanecarboxamide]	≤ 500
≥ 90	≤ 500	≤ 500	CCc1nc(C)c(C(=O)Nc2cc(Oc3ccc4nc(NC(=O)C5CC5)cn4n3)ccc2F)o1 [Example 314, N-[5-({2-[(cyclopropylcarbonyl)amino]imidazo[1,2-b]pyridazin-6-yl}oxy)-2-fluorophenyl]-2-ethyl-4-methyl-1,3-oxazole-5-carboxamide]	≤ 500
≥ 90	≤ 500	≤ 500	Cc1cc(C(=O)Nc2cc(Oc3ccc4nc(NC(=O)C5CC5)cn4n3)ccc2F)n(C)n1 [Example 148, N-[5-({2-[(cyclopropylcarbonyl)amino]imidazo[1,2-b]pyridazin-6-yl}oxy)-2-fluorophenyl]-1,3-dimethyl-1H-pyrazole-5-carboxamide]	≤ 500
≥ 90	≤ 500	≤ 500	CCc1cc(C(=O)Nc2cc(Oc3ccc4nc(NC(=O)C5CC5)cn4n3)ccc2Cl)n(C)n1 [Example 247, N-[2-chloro-5-({2-[(cyclopropylcarbonyl)amino]imidazo[1,2-b]pyridazin-6-yl}oxy)phenyl]-3-ethyl-1-methyl-1H-pyrazole-5-carboxamide]	≤ 500
